The target in assay [1] is T1, human Edg-3 receptors (Homo sapiens, UniProt Q99500).
T1 construct: expressed in transfected cells; host or cells: HTC (rat hepatoma) cells
Kind of assay: Calcium response in HTC cells expressing human Edg-3 receptors. As to conditions: HTC cells expressing human Edg-3 receptors (also tested in NIH 3T3 cell lines that naturally express Edg-3); FIG. 1. Format: cell-based. An excerpt: Specific assays for Edg-3 receptor activity are known to those of skill in the art. For example, cells expressing Edg-3 receptors can be contacted with a membrane-permeant calcium sensitive dye such as Fluo-4 AM or a proprietary calcium dye loading kit (e.g., FLIPR Calcium Assay kit, Molecular Devices, Sunnyvale, Calif.). Intracellular calcium is capable of binding to the dye and emitting fluorescent radiation when illuminated at the appropriate wavelength. The cells can thus be illuminated an appropriate wavelength for the dye and any emitting light can be captured by a cooled CCD camera. Changes in fluorescence indicate changes in intracellular calcium resulting from the activation of an Edg-3 receptor. Such changes can be measured advantageously in whole cells in “real-time” (Berridge et al., Nature Reviews 2000, 1:11-21).
The compounds were tested in HTC cells expressing human Edg-3 receptors, as well as in NIH 3T3 cell lines that naturally express Edg-3 receptors. […] The compounds are tested in this recombinant system first, and subsequently tested in cell lines expressing Edg-3 (in addition to other Edg receptors).

Assay [2] addresses T2, Histamine H1, Central (Cavia porcellus, UniProt P31389).
T2 construct: from tissue; host or cells: Guinea pig cerebellum
Kind of assay: Radioligand binding assay, Histamine H1, Central. Conditions: Guinea pig cerebellum; 1.75 nM 3H Pyrilamine; significance criteria ≦50% of max stimulation or inhibition. As to the method: (§1) In order to test the selectivity of compounds, various radioligand binding assays were performed using numerous non-Edg receptor targets as listed below.
(§2) A radioligand binding assay was performed using adrenergic α1 according to the method of Greengrass and Bremner 1979, Eur. J. Pharmacol. 55:323-326. A radioligand binding assay was performed using adrenergic α2 according to the method of Boyajian and Leslie, 1987, J. Pharmacol. Exp. Ther. 241:1092-1098. A radioligand binding assay was performed using adrenergic β according to the method of Feve et al., 1994, Proc. Natl. Acad. Sci. USA 91:5677-5681. A radioligand binding assay was performed using angiotensin AT2 according to the method of Whitebread et al., 1991, Biochem. Biophys. Res. Comm. 181:1365-1371. A radioligand binding assay was performed using calcium channel Type L, dihydropyridine according to the method of Ehlert et al., 1982, Life Sci. 30:2191-2202. A radioligand binding assay was performed using dopamine D2L according to the method of Bunzo et al., 1988, Nature 336:783-787. A radioligand binding assay was performed using endothelin ETA according to the method of Mihara et al., 1994, J. Pharmacol. Exp Ther. 268:1122-1127. A radioligand binding assay was performed using histamine H1 Central according to the method of Hill et al., 1978, J. Neurochem. 31:997-1004. […]
(§3) Quantitation Method: Radioligand Binding […]

In assay [3] the test system is Adrenergic α1, non-selective. Briefly: Radioligand binding assay, Adrenergic α1, non-selective. As to conditions: Wistar Rat brain; 0.25 nM 3H Prazosin; significance criteria ≦50% of max stimulation or inhibition. As to the method:
as §1, §2, §3

The target of assay [4] is T3, Dopamine D2L (Homo sapiens, UniProt P14416).
T3 construct: expressed in transfected cells; host or cells: CHO cells
Briefly: Radioligand binding assay, Dopamine D2L. As to conditions: Human recombinant CHO cells; 0.16 nM 3H Spiperone; significance criteria ≦50% of max stimulation or inhibition. As to the method: as §1, §2, §3

For assay [5], the target named is T4, Endothelin ETA (Homo sapiens, UniProt P25101).
T4 construct: expressed in transfected cells; host or cells: CHO cells
T4 sequence (P25101 21-427): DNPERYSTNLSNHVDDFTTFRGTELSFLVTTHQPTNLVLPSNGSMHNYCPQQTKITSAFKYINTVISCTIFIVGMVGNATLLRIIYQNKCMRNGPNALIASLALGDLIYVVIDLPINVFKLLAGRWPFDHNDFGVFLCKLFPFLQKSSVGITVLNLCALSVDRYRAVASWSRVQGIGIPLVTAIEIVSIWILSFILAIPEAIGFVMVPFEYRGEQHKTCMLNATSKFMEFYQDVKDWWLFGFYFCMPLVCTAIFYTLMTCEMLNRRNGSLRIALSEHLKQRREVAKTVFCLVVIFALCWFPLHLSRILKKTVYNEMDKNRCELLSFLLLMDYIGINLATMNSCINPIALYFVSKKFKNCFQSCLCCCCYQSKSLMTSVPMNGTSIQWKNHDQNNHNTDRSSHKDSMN
Kind of assay: Radioligand binding assay, Endothelin ETA. Conditions: Human recombinant CHO cells; 0.03 nM 125 Endothelin; significance criteria ≦50% of max stimulation or inhibition. As to the method: as §1, §2, §3

For assay [6], the system named is Calcium Channel Type L, Dihydropyridine. Briefly: Radioligand binding assay, Calcium Channel Type L, Dihydropyridine. Conditions: Wistar Rat cerebral cortex; 0.1 nM 3H Nitrendipine; significance criteria ≦50% of max stimulation or inhibition. As to the method: as §1, §2, §3

The results in this text go back to patent US20040167181A1, “Methods of treating conditions associated with an Edg-3 receptor” (priority 2003, published 2004).

Structures are written as SMILES. “Also recorded” adds a separate entry of the source.

T1 sequence (Q99500 whole entry): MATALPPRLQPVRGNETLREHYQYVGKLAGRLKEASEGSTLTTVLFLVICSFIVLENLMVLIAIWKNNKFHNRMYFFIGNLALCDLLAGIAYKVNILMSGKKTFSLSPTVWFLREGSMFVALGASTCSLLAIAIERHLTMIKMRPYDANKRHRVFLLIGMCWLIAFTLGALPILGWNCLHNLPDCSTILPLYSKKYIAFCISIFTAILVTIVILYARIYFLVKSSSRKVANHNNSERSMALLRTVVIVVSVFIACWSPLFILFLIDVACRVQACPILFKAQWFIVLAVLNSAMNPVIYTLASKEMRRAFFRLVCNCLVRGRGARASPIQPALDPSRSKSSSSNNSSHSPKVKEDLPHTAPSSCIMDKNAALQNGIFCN
T3 sequence (P14416 whole entry): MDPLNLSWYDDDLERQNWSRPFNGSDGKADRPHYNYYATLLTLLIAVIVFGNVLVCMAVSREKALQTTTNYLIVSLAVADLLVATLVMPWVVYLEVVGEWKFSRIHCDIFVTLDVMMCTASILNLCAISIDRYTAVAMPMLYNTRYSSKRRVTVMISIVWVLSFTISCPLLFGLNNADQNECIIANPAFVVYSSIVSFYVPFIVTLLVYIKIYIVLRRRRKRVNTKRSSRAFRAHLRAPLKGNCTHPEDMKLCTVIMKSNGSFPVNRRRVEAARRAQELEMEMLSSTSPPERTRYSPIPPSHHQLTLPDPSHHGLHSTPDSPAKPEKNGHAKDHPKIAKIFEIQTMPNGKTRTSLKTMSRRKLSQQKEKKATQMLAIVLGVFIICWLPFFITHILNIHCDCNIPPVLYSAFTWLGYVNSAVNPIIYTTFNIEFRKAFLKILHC
T2 sequence (P31389 whole entry): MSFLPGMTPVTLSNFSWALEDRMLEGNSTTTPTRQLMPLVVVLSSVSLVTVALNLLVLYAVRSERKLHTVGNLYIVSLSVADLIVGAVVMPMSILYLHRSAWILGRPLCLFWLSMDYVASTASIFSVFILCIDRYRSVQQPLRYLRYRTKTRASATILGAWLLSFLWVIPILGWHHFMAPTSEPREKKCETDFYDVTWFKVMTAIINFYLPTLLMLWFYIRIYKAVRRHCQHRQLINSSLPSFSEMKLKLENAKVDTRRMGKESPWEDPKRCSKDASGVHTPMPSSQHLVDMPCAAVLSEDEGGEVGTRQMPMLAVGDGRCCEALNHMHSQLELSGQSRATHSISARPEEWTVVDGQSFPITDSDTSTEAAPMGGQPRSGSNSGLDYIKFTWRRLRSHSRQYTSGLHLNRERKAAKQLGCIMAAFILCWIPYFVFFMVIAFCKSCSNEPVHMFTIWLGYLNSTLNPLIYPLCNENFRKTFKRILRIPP

For `Cc1c(-c2ccccc2)nc2ccccc2c1C(=O)NCc1ccc(F)cc1` [Compound 101], in assay [1], the “inhibition of Edg-3 stimulated SP1 responses” value is recorded as “demonstrate inhibition; also recorded: specifically inhibit”. Also, the “activity in radioligand binding assay” value in assay [2], in assay [3], in assay [4], in assay [5] and in assay [6] was “no significant activity” each time.
